Measured values taken from PMC6100472, “Cyclodextrins: Assessing the Impact of Cavity Size, Occupancy, and Substitutions on Cytotoxicity and Cholesterol Homeostasis” (Molecules : A Journal of Synthetic Chemistry and Natural …, 2018).
≈ marks a conversion by molar mass, not a printed value.

Columns and labels:
HeLa cells = assay: MTS cell viability assay (CellTiter 96 AQueous One) in HeLa cells; format: cell-based, human; conditions: 10 mM, 24 h
Description: (§1) The CD/lipid inclusion complexes were then tested for their ability to reduce the metabolic activity (or cell viability) in HEK293T cells and HeLa cells (Figure 4) using the CellTiter 96 AQueous One Solution Cell Proliferation Assay Kit (Promega). Cells were treated with 10 mM of the free RAMEB, cholesterol-loaded RAMEB, linoleic acid-loaded RAMEB, or β-sitosterol-loaded RAMEB. At 24 h after treatment, a cell viability assay was conducted, and the absorbance at 490 nm was measured to determine the levels of the reaction products that were generated in metabolically active cells. Triton X-100 (TX) was included as a positive control for cytotoxicity. […]
(§2) The effects of CD treatment on cell viability and cytotoxicity were determined using the CellTiter 96 AQueous One Solution Cell Proliferation Assay Kit (Promega) and LDH Cytotoxicity Assay Kit (Thermo Fisher Scientific), respectively. […] The absorbance of the plates was recorded at 490 nm with an xMark microplate absorbance spectrophotometer (Bio-Rad, Hercules, CA, USA). […] Extracellular LDH in the media can be quantified by a coupled enzymatic reaction in which LDH catalyzes the conversion of lactate to pyruvate via nicotinamide adenine dinucleotide (NAD^+) reduction to NADH. Diaphorase then uses NADH to reduce a tetrazolium salt (INT) to a red formazan product that can be measured at 490 nm. […]

HEK293T cells = assay: MTS cell viability assay (CellTiter 96 AQueous One) in HEK293T cells; format: cell-based, human; conditions: 10 mM, 24 h
Description: as §1, §2

[1] = test system: isolated human erythrocytes; assay: In vitro hemolysis test using isolated human erythrocytes; format: cell-based
Description: Venous blood was taken from healthy volunteers and placed in plastic tubes containing sodium–citrate anti-coagulant. The cell fraction including erythrocytes was separated from the plasma components by centrifugation (2500× g, 10 min, 20 °C), washed three times with phosphate buffered saline (PBS) solution, and re-suspended in the same solution. The erythrocyte count was adjusted to 10^9 per mL under the control of a Laborscale cell analyzer (Medicor, Hungary). The test was performed in standard Eppendorf-type plastic tubes, where the incubation mixture consisted of 1.3 mL of reagent solution containing increasing concentrations of CDs dissolved in PBS, 0.05 mL of erythrocyte suspension containing 5 × 10^7 red blood cells, and 0.05 mL of 3% Na2CO3. After 10 min incubation at 37 °C, samples were mixed and centrifuged at 5000x g. The absorbance of the released hemoglobin in the supernatant was determined at 540 nm spectrophotometrically. As a reference, total (100%) hemolysis was obtained by replacing PBS with distilled water. CD-induced hemolysis was related to this reference value and expressed as percent hemolysis. All of the experiments included at least 10 different concentrations of the test materials in triplicate runs to allow the plotting of dose-effect curves from multi-point determinations, and to calculate EC50 values. In order to investigate the protective effect of plasma components, aliquots of PBS were replaced by 50 µL, 100 µL, and 200 µL of blood plasma in the incubation mixture. Plasma protein concentration was determined by the biuret method.

[2] = test system: primary fibroblast cells from an NPC patient (NPC1 mutant); assay: Intracellular cholesterol distribution by Filipin III staining; format: cell-based, human; conditions: 1 mM, 72 h, NPC1 mutant primary fibroblasts
Description: We determined the effects of the CD derivatives on intracellular cholesterol accumulation in primary fibroblast cells derived from an NPC patient using Filipin III, a fluorescent compound that specifically binds to unesterified cholesterol. After treatment with the CD derivatives (1 mM) for 72 h, the cells were examined for the fluorescent intensity of Filipin III using a fluorescence microscope. […] Studies are underway to define the molecular mechanisms by which HPβCD and HPγCD alleviate the cholesterol-trafficking defect. Cells were incubated in medium containing CD derivatives at 1 mM for 72 h. Cells were washed three times with PBS and fixed with 3.7% paraformaldehyde for 30 min at room temperature. After washing with PBS, cells were stained with PBS containing Filipin III (12.5 μg/mL) for 30–45 min at room temperature in the dark. After washing with PBS and applying a mounting medium, cells were analyzed using a Nikon TE2000 widefield microscope (Nikon, Melville, NY, USA).

[3] = test system: whole blood (erythrocytes); assay: In vitro hemolysis test in whole blood samples; format: cell-based, human; conditions: RBC count 1 × 10^9
Description: For these experiments, healthy volunteers with identical main blood groups [A, Rhesus blood factor D (Rh) positive] but differing in their plasma lipid contents were selected. Plasma and cellular blood components were separated from the freshly taken sodium-citrated blood by centrifugation (2500× g, 10 min, 4 °C). The sedimented composite cellular fraction (red and white blood cells, and platelets) was washed with PBS, then re-suspended either in their own original plasma or in the foreign plasma with the identical blood group, resulting in erythrocyte/plasma combinations of normal cholesterol/lipid levels or higher cholesterol/lipid levels. The erythrocyte count was adjusted to 4 × 10^9 per mL in the blood. In this case, hemolysis test mixtures contained 0.04 mL of test solution with increasing concentrations of methyl-β-CD, 0.25 mL of blood, and 0.01 mL of 3% Na2CO3. Incubation and subsequent centrifugation conditions were identical to the above. Aliquots of the supernatant were diluted using PBS (containing 3% Na2CO3), and their hemoglobin content was determined. Again, dose-effect curves were constructed from multi-point determinations of triplicate runs. The levels of cholesterol, high-density lipoprotein (HDL), and triglyceride in plasma were determined by the use of standard laboratory procedures.

[4] = isolated human erythrocytes in PBS, no plasma
[5] = isolated human erythrocytes in PBS, plasma 50 μL
[6] = isolated human erythrocytes in PBS, plasma 100 μL
[7] = isolated human erythrocytes in PBS, plasma 200 μL

Compound	Hemolytic EC50 [1, 4]	Hemolytic EC50 [1, 5]	Hemolytic EC50 [1, 6]	Hemolytic EC50 [1, 7]	Effect on intracellular cholesterol accumulation (Filipin III fluorescence) [2]	other results
Randomly methylated β-cyclodextrin [RAMEB]	2300 ± 300 µg/mL	5200 ± 300 µg/mL	7000 ± 400 µg/mL	9700 ± 500 µg/mL	–	Effect on cell viability (metabolic activity) (HeLa cells): significant reduction in metabolic activity; Effect on cell viability (metabolic activity) (HEK293T cells): significant reduction in metabolic activity
COC[C@H]1O[C@@H]2O[C@H]3[C@H](OC)[C@@H](OC)[C@@H](O[C@H]4[C@H](OC)[C@@H](OC)[C@@H](O[C@H]5[C@H](OC)[C@@H](OC)[C@@H](O[C@H]6[C@H](OC)[C@@H](OC)[C@@H](O[C@H]7[C@H](OC)[C@@H](OC)[C@@H](O[C@H]8[C@H](OC)[C@@H](OC)[C@@H](O[C@H]1[C@H](OC)[C@H]2OC)O[C@@H]8COC)O[C@@H]7COC)O[C@@H]6COC)O[C@@H]5COC)O[C@@H]4COC)O[C@@H]3COC [TRIMEB, Heptakis (2,3,6-tri-O-methyl)-β-cyclodextrin]	7300 ± 200 µg/mL	11300 ± 300 µg/mL	14700 ± 400 µg/mL	19000 ± 200 µg/mL	–	–
CC(O)COC[C@H]1O[C@@H]2O[C@H]3[C@H](O)[C@@H](O)[C@@H](O[C@H]4[C@H](O)[C@@H](O)[C@@H](O[C@H]5[C@H](O)[C@@H](O)[C@@H](O[C@H]6[C@H](O)[C@@H](O)[C@@H](O[C@H]7[C@H](O)[C@@H](O)[C@@H](O[C@H]8[C@H](O)[C@@H](O)[C@@H](O[C@H]1[C@H](O)[C@H]2O)O[C@@H]8COCC(C)O)O[C@@H]7COCC(C)O)O[C@@H]6COCC(C)O)O[C@@H]5COCC(C)O)O[C@@H]4COCC(C)O)O[C@@H]3COCC(C)O (stereo partly drawn) [HPβCD, Hydroxypropyl-β-cyclodextrin]	–	–	–	–	reduction in cholesterol accumulation	–
COC[C@H]1O[C@@H]2O[C@H]3[C@H](O)[C@@H](OC)[C@@H](O[C@H]4[C@H](O)[C@@H](OC)[C@@H](O[C@H]5[C@H](O)[C@@H](OC)[C@@H](O[C@H]6[C@H](O)[C@@H](OC)[C@@H](O[C@H]7[C@H](O)[C@@H](OC)[C@@H](O[C@H]8[C@H](O)[C@@H](OC)[C@@H](O[C@H]1[C@H](O)[C@H]2OC)O[C@@H]8COC)O[C@@H]7COC)O[C@@H]6COC)O[C@@H]5COC)O[C@@H]4COC)O[C@@H]3COC [DIMEB-50, Heptakis (2,6-di-O-methyl)-β-cyclodextrin]	1200 ± 200 µg/mL	8500 ± 200 µg/mL	9400 ± 400 µg/mL	11900 ± 300 µg/mL	–	EC50DIMEB (hemolytic potency) ([1]; 5 mg/mL BSA (Figure 2)): 1380 µg/mL (≈ 1040 µM); EC50DIMEB (hemolytic potency) ([1]; 10 mg/mL bovine serum albumin (BSA) (Figure 2)): 1530 µg/mL (≈ 1150 µM); EC50DIMEB (hemolytic potency) ([1]; 100-µL plasma resulting in 5 mg/mL protein concentration in the mixture (Figure 2)): 9380 µg/mL; EC50DIMEB (hemolytic potency) ([1]; 200-µL plasma resulting in 10 mg/mL protein concentration in the mixture (Figure 2)): 11960 µg/mL; Hemolytic EC50 ([1]; RBCs-washed, 200 μL plasma added, plasma CHO 0.76 mM, HDL 0.25 mM, TG 0.13 mM, RBC count 5 × 10^7): 12600 ± 200 µg/mL; Hemolytic EC50 ([1]; RBCs-washed, no plasma added, RBC count 5 × 10^7): 1320 ± 100 µg/mL; Hemolytic EC50 ([3]; plasma CHO 2.22 mM, HDL 1.13 mM, TG 0.48 mM): 18000 ± 200 µg/mL; Hemolytic EC50 ([3]; plasma CHO 4.38 mM, HDL 0.58 mM, TG 1.08 mM): 22400 ± 400 µg/mL
COC[C@H]1O[C@@H]2O[C@H]3[C@H](O)[C@@H](OC)[C@@H](O[C@H]4[C@H](O)[C@@H](OC)[C@@H](O[C@H]5[C@H](O)[C@@H](OC)[C@@H](O[C@H]6[C@H](O)[C@@H](OC)[C@@H](O[C@H]7[C@H](O)[C@@H](OC)[C@@H](O[C@H]8[C@H](O)[C@@H](OC)[C@@H](O[C@H]1[C@H](O)[C@H]2OC)O[C@@H]8COC)O[C@@H]7COC)O[C@@H]6COC)O[C@@H]5COC)O[C@@H]4COC)O[C@@H]3COC [DIMEB-95, Heptakis (2,6-di-O-methyl)-β-cyclodextrin]	1200 ± 300 µg/mL	4700 ± 400 µg/mL	6500 ± 600 µg/mL	8800 ± 500 µg/mL	–	–
Hydroxypropyl-γ-cyclodextrin [HPγCD]	–	–	–	–	reduction in cholesterol accumulation	–
